Assays:
[1] = test system: H1975 cells; test: MTT cell growth inhibition assay; format: cell-based; settings: Homo sapiens, NCI-H1975, H1975 cells (L858R and T790M EGFR mutations), 48 h
Description: (§1) NSCLC having EGFR with L858R mutation is also respond to EGFR kinase inhibitors. H3255 cells expressing EGFR L858R mutant is sensitive to EGFR kinase inhibitors. In order to measure the sensitivity of five NSCLC cell lines to F-IRS, […] assay was performed. Tumor cells were plated at a density of 2 × 10^3 cells/well into 96-well plates in RPMI 1640 with 10% FBS. Cells were kept in the log phase of proliferative activity. Various concentrations of F-IRS added to each well, and incubation was continued for an additional 48 h. Then, 50 μL of MTT solution (2 mg/mL; Sigma) were added to all wells, and incubation was continued for another 2 h. The media containing MTT solution was removed, and the precipitated material was dissolved by adding 100 μL of DMSO. The absorbance was measured with a microplate reader at test and reference wavelengths of […], respectively. The percentage of growth is shown relative to untreated controls.

[2] = test system: H3255 cells; test: MTT cell growth inhibition assay; format: cell-based; settings: Homo sapiens, NCI-H3255, H3255 cells (EGFR L858R mutant), 48 h
Description: as §1

[3] = test system: H358 cells; test: MTT cell growth inhibition assay; format: cell-based; settings: Homo sapiens, NCI-H358, H358 cells (WT EGFR), 48 h
Description: as §1

[4] = test system: H520 cells; test: MTT cell growth inhibition assay; format: cell-based; settings: Homo sapiens, NCI-H520, H520 cells (negative EGFR), 48 h
Description: as §1

[5] = test system: HCC827 cells; test: MTT cell growth inhibition assay; format: cell-based; settings: Homo sapiens, HCC827 cells (19 exon deleted mutant EGFR), 48 h
Description: as §1

[6] = test system: HCC827 cells; test: Cellular uptake, efflux and blocking assay; format: cell-based, human; settings: for cellular uptake: HCC827 cells
Description: (§2) Cells were trypsinized and seeded overnight in 12-well culture plates at a density of 1 × 10^5 cells per well (1 × 10^5 cells/1.0 mL/well). ^18F-IRS (37 kBq/1.0 mL/well) in 1 ml of serum free 1640 medium was added to each well and incubated at 37 °C for 15 min, 30 min, 60 min and 120 min. Triplicates were carried out for each time point. One milliliter of ice-cold PBS was used to intercept the uptake of tracer. The supernatants were aspirated and the cells were rinsed twice with 1 mL of ice-cold PBS to remove surface-bound radioactive ligand. After washing twice with PBS, the cells were harvested by the addition of 250 μl of 0.1 N NaOH. Efflux assays were performed after 120 min of incubation with ^18F-IRS and then the media was removed and replaced with serum free 1640 medium without ^18F-IRS. At 15 min, 30 min, 60 min and 120 min, the media was removed and the cells washed twice with ice-cold PBS. 200 μl of 0.1 N NaOH were added to […] the cells and then the wells were washed twice with 1 ml of ice-cold PBS. The cell solution and the PBS from each washed well were recovered and counted with CPM in a gamma counter (Wizard 2, PerkinElmer). The results were calculated using the same cellular uptake formula. For blocking experiments, gefitinib (100 μmol/L) was added to HCC827 cells. After 60 min of incubation, the uptake and efflux assays in HCC827 cells were repeated thrice.

[7] = test system: H1975 cells; test: Cellular uptake and efflux assay; format: cell-based, human; settings: 120 min of incubation
Description: as §2

[8] = test system: H358 cells; test: Cellular uptake and efflux assay; format: cell-based, human; settings: 120 min of incubation
Description: as §2

[9] = test system: H520 cells; test: Cellular uptake and efflux assay; format: cell-based, human; settings: 120 min of incubation
Description: as §2

[10] = test system: HCC827 xenografts; test: In vivo PET/CT imaging and blocking of tumor-bearing mice; parameters: species or system BALB/c nude mice
Description: (§3) All animal studies were conducted in accordance with the China Guidelines for Animal Care and Ethic for Animal Experiments and the experimental protocols were approved by the Animal Use and Care Committee of Harbin Medical University. Female BALB/c nude mice (from the Shanghai Slack Experimental Animal Center of qualified animals SCXK) approximately 4–6 weeks of age and mean weight 20–22 g were used. Approximately 5 × 10^6 of cultured HCC827, H1975, H358 and H520 cells were suspended in PBS/Matrigel (1:1) (BD Bioscience) and subcutaneously implanted in the right shoulders of Female BALB/c nude mice. PET/CT studies were performed when the tumor volume reached 250 mm^3 (4–6 weeks after inoculation).
(§4) PET/CT imaging of tumor-bearing mice was performed on a clinical time-of-flight (TOF) 64-slice PET/Computed tomography (CT) scanner (Discovery 790 Elite, GE healthcare). The mice bearing tumors (for each group n = 4) were injected with 3.7 MBq (100 μCi) of ^18F-IRS into the tail vein. At 30 min, 60 min and 120 min after injection, the mice were anesthetized with 2% isoflurane and placed near the center of the field of view of the PET/CT scanner in prone position. For blocking studies, gefitinib (100 mg/kg) was injected into HCC827 xenografts nude mice (n = 4) via tail vein 60 min before PET/CT imaging. The mice were imaged as described above 120 min after injection.
(§5) The images were reconstructed using a two-dimensional ordered-subset expectation maximization (OSEM) algorithm. For each scan, regions of interest (ROIs) were drawn over the tumor and major organs using the AW4.6 software (GE Healthcare) on decay-corrected whole-body coronal images. The radioactivity concentrations (accumulations) within the tumor, muscle were obtained from mean pixel values within the multiple ROI volumes and then converted to megabecquerels per milliliter per minute using the calibration factor determined for the PET system. These values were then divided by the administered activity to obtain (assuming a tissue density of 1 g/ml) an image ROI-derived percent injected dose per gram (% ID/g).

[11] = test system: H1975 xenografts; test: In vivo PET/CT imaging of tumor-bearing mice; parameters: species or system BALB/c nude mice; settings: H1975 tumors, all time points
Description: as §3, §4, §5

[12] = test system: H358 xenografts; test: In vivo PET/CT imaging of tumor-bearing mice; parameters: species or system BALB/c nude mice; settings: H358 tumors, all time points
Description: as §3, §4, §5

[13] = test system: H520 xenografts; test: In vivo PET/CT imaging of tumor-bearing mice; parameters: species or system BALB/c nude mice; settings: H520 tumors, all time points
Description: as §3, §4, §5

[14] = test system: H358 xenografts; test: Ex vivo biodistribution, tumor uptake; format: in vivo, BALB/c nude mice; settings: H358 tumors, 120 min after injection
Description: as §3
(§6) Biodistribution studies were performed in BALB/c nude mice bearing HCC827, H1975, H358 and H520 xenografts by injecting 3.7MBq of ^18F-IRS into the tail vein (n = 4 per group) and then sacrificing the animals at 30 min, 60 min and 120 min after injection. Tumor and normal tissues were excised and weighed, and the radioactivity was measured using a gamma-counter (Wizard 2, PerkinElmer). All measurements were background-subtracted and decay-corrected to the time of injection and then averaged together. The radioactivity uptake in tumor and normal tissues was expressed as the percentage of the injected dose per gram of organ (% ID/g).

[15] = test system: H520 xenografts; test: Ex vivo biodistribution, tumor uptake; format: in vivo, BALB/c nude mice; settings: H520 tumors, 120 min after injection
Description: as §3, §6

[16] = test system: HCC827 xenografts; test: Ex vivo biodistribution, tumor uptake; format: in vivo, BALB/c nude mice
Description: as §3, §6

[17] = Biodistribution and clearance in normal organs of tumor-bearing mice; format: in vivo, BALB/c nude mice
Description: as §4, §6

[18] = test system: NSCLC with responsive EGFR exon 19 deleted; test: PET/CT examination of patients with NSCLC; format: in vivo, human
Text: This study (ClinicalTrials.gov number, NCT03031522) was approved by the Medical Ethics Review Committee of the Fourth Hospital of Harbin Medical University. Subjects signed written informed consent after receiving an explanation of the study. The images provided in this article have been agreed by the subjects. The diagnosis was confirmed by histopathological examination. Three patients confirmed having NSCLC with responsive EGFR exon 19 deleted by histopathology participated in the study from January 2015 to February 2016 (Table 2). ^18F-IRS scans were performed on PET/CT (Discovery 790 Elite; GE healthcare). Approximately 222MBq (6 mCi) of ^18F-IRS was administered intravenously within 5 minutes. Scanning was in initiated 1 hour after administration of ^18F-IRS. Corresponding whole body CT scans for attenuation correction were acquired using a low-dose protocol. Consecutively, PET emission data were acquired in three-dimensional mode with a 200 × 200 matrix with 3 min emission time per bed position. The maximum standard uptake value (SUVmax) normalized to body weight […] was calculated within the region of interest with the following formula: [measured activity concentration (Bq/mL) · body weight (kg)]/injected activity (Bq). Calculation of the radioactivity concentration included the use of a calibration factor that converted the activity counts into becquerels, and the decay correction of the Advantage Workstation 4.6 workstation (GE Healthcare) was […].

[19] = test system: H1975; parameters: method as in PMID 15767641; settings: H1975, L858R and T790M secondary mutation; cited from earlier work
[20] = test system: H358 cell line; parameters: method as in PMID 19826406; settings: H358 (EGFR wild type); cited from earlier work
[21] = test system: H520 cells; parameters: method as in PMID 21152424; settings: H520 (negative EGFR); cited from earlier work
[22] = HCC827 tumors, 120 min after i.v. injection of 3.7 MBq
[23] = Mean ± SD of three patients, 60 min after injection
[24] = patient 1, 60 min after injection
[25] = patient 2, 60 min after injection
[26] = patient 3, 60 min after injection

Structure (SMILES): FCCOCCOCCOCCOc1cc2ncnc(Nc3ccc(F)c(Cl)c3)c2cc1OCCCN1CCOCC1 [F-IRS]
- IC50 [1]: 2.27 ± 1.17 µM
- IC50 [2]: 0.0131 ± 0.0044 µM
- IC50 [3]: 7.05 ± 2.3 µM
- IC50 [4]: 18.4 ± 2.21 µM
- IC50 [5]: 0.0056 ± 0.0002 µM

Structure (SMILES): Fc1ccc(Nc2ncnc3cc(OCCOCCOCCOCC[18F])c(OCCCN4CCOCC4)cc23)cc1Cl [^18F-IRS]
- cellular uptake after blocking ([6]; HCC827 cells treated with 100 μmol/L gefitinib, 120 min of incubation): 0.89 ± 0.12%
- cellular uptake ([6]; 15 min of incubation): 7.51 ± 1.05%
- cellular uptake ([6]; 30 min of incubation): 10.03 ± 0.47%
- cellular uptake ([6]; 120 min of incubation): 14.07 ± 0.98%
- cellular uptake [7]: 1.49 ± 0.05%
- cellular uptake [8]: 1.82 ± 0.19%
- cellular uptake [9]: 2.31 ± 0.36%
- accumulation in tumors on PET/CT images [10, 22]: significantly high accumulation
- tumor/muscle ratio (PET quantification) ([10]; HCC827 vs H1975, H358 and H520 xenografts, 120 min, P < 0.01): significantly higher
- tumor uptake on PET/CT after blocking ([10]; HCC827 xenografts, gefitinib 100 mg/kg before imaging, 120 min): blocked by gefitinib
- tumor uptake on PET/CT images [11]: unobviously detectable
- tumor uptake on PET/CT images [12]: unobviously detectable
- tumor uptake on PET/CT images [13]: unobviously detectable
- tumor uptake (ex vivo biodistribution) [14]: 1.68 ± 0.29 % ID/g
- tumor uptake (ex vivo biodistribution) [15]: 1.62 ± 0.08 % ID/g
- tumor uptake (ex vivo biodistribution) [16, 22]: 4.27 ± 0.15 % ID/g
- tumor uptake (ex vivo biodistribution) after blocking ([16]; HCC827 xenografts blocked by gefitinib 100 mg/kg, 120 min): 1.12 ± 0.21 ID/g
- route of elimination ([17]; mice, PET/CT imaging and biodistribution): mainly eliminated through renal clearance
- uptake in all other organs and blood ([17]; tumor-bearing nude mice, except kidneys, intestine and gallbladder): very low
- SUVmax Bladder [18, 23]: 5.11 ± 3.02
- SUVmax Brain [18, 23]: 0.43 ± 0.29
- SUVmax Kidneys [18, 23]: 13.13 ± 0.31
- SUVmax Liver [18, 23]: 10.48 ± 0.44
- SUVmax Lungs [18, 23]: 0.82 ± 0.23
- SUVmax Muscles [18, 23]: 0.65 ± 0.14
- SUVmax Small intestines [18, 23]: 8.05 ± 1.67
- SUVmax Tumor [18, 23]: 2.44 ± 0.49
- SUVmax Bladder [18, 24]: 8.51
- SUVmax Brain [18, 24]: 0.19
- SUVmax Kidneys [18, 24]: 12.96
- SUVmax Liver [18, 24]: 10.52
- SUVmax Lungs [18, 24]: 0.58
- SUVmax Muscles [18, 24]: 0.73
- SUVmax Small intestines [18, 24]: 7.17
- SUVmax Tumor [18, 24]: 2.19
- SUVmax Bladder [18, 25]: 4.11
- SUVmax Brain [18, 25]: 0.76
- SUVmax Kidneys [18, 25]: 13.49
- SUVmax Liver [18, 25]: 10.9
- SUVmax Lungs [18, 25]: 1.04
- SUVmax Muscles [18, 25]: 0.75
- SUVmax Small intestines [18, 25]: 9.99
- SUVmax Tumor [18, 25]: 2.12
- SUVmax Bladder [18, 26]: 2.72
- SUVmax Brain [18, 26]: 0.34
- SUVmax Kidneys [18, 26]: 12.95
- SUVmax Liver [18, 26]: 10.02
- SUVmax Lungs [18, 26]: 0.85
- SUVmax Muscles [18, 26]: 0.49
- SUVmax Small intestines [18, 26]: 7.01
- SUVmax Tumor [18, 26]: 3.01
- main route of elimination ([18]; patients with NSCLC): urinary tract, followed by the hepatobiliary
- changes in heart rates, respiration rates, and blood pressure ([18]; patients with NSCLC, after i.v. injection): no significant changes

Structure (SMILES): COc1cc2ncnc(Nc3ccc(F)c(Cl)c3)c2cc1OCCCN1CCOCC1 [gefitinib]
- sensitivity of cell line [19]: conferring resistance
- sensitivity of cell line [20]: less sensitive
- sensitivity of cell line [21]: do not respond

— article PMC5466683, “Development and Evaluation of ^18F-IRS for Molecular Imaging Mutant EGF Receptors in NSCLC” (Scientific Reports, 2017)
